Source: patent US20250243210A1, “CRBN E3 LIGASE LIGAND COMPOUND, PROTEIN DEGRADER DEVELOPED BASED THEREON AND THEIR APPLICATIONS” (GLUETACS THERAPEUTICS (SHANGHAI) CO., LTD., priority 2021, published 2025)
pIC50: −log10 of the molar value. Like-named read-outs stand apart in the source and are kept apart here. Each block holds one molecule with its values, some of them ahead of it.

Key:
SW620 = test: CCK-8 tumor cell proliferation, SW620; assay type: cell-based, Human; settings: SW620, 96 h, read-out: IC50 for inhibiting the proliferation of tumor cells, SW620
Protocol: (§1) Determination of half inhibitory concentration (IC50) of the compounds against tumor cells:
(§2) The tumor cells used herein were cultured in a cell culture medium listed in table 6 at 37° C. in an incubator with 5% CO2.
(§3) After the cells were treated with the compounds of the present disclosure for a period of time (the treatment times listed in Table 7), the cell viability detection reagent was added to the culture medium for cell viability assessment according to the instructions provided with the CCK-8 kit. […] The growth inhibition of the compounds of the present disclosure on cells was plotted by Prism Graphpad software, and the IC50 values of the compounds of the present disclosure were calculated therefrom.

Hep3B2.1-7 = test: CCK-8 tumor cell proliferation, Hep3B2.1-7; assay type: cell-based, Human; settings: Hep3B2.1-7, 96 h, read-out: IC50 for inhibiting the proliferation of tumor cells, Hep3B2.1-7
Protocol: as §1
(§4) The tumor cells used herein were cultured in a cell culture medium listed in table 6 at 37° C. in an incubator with 5% CO2. Prior to experimentation, all cells used were correctly identified by STR profiling, and tested negative for mycoplasma through routine screenings.
(§5) IC50 values of the compounds of the present disclosure (including the compounds in Table 4 and compounds of examples 1-72) were measured using the Meilun Cell Counting Kit-S kit from Dalian Meilun Biotech Co., Ltd. Assay details are as follows: tumor cells were seeded in a 96-well plate at a density listed in Table 7. After 24 h, 100 μL of the inoculated cells were treated with 0.5 μL of the compounds of the present disclosure (including the compounds in Table 4 and compounds of examples 1-72) at 10 different successively decreasing concentrations (starting at the highest concentration of 10 μM; 5-fold serial dilutions). After the cells were treated with the compounds of the present disclosure for a period of time (the treatment times listed in Table 7), the cell viability detection reagent was added to the culture medium for cell viability assessment according to the instructions provided with the CCK-8 kit. […] The growth inhibition of the compounds of the present disclosure on cells was plotted by Prism Graphpad software, and the IC50 values of the compounds of the present disclosure were calculated therefrom.

MGC80-3 = test: CCK-8 tumor cell proliferation, MGC80-3; assay type: cell-based, Human; settings: read-out: IC50 for inhibiting the proliferation of tumor cells, MGC80-3
Protocol: as §1, §4, §5

DU-145 = test: CCK-8 tumor cell proliferation, DU-145; assay type: cell-based, Human; settings: DU-145, 96 h, read-out: IC50 for inhibiting the proliferation of tumor cells, DU-145
Protocol: as §1, §2, §3

MM.1R = test: CCK-8 tumor cell proliferation, MM.1R; assay type: cell-based; settings: 72 h, read-out: IC50 for inhibiting the proliferation of tumor cells, MM.1R
Protocol: as §1, §2, §3

LNcap = test: CCK-8 tumor cell proliferation, LNcap; assay type: cell-based, Human; settings: 96 h, read-out: IC50 for inhibiting the proliferation of tumor cells, LNcap
Protocol: as §1, §4, §5

A549 = test: CCK-8 tumor cell proliferation, A549; assay type: cell-based, Human; settings: A549, 96 h, read-out: IC50 for inhibiting the proliferation of tumor cells, A549
Protocol: as §1, §4, §5

WSU-DLCL2 = test: CCK-8 tumor cell proliferation, WSU-DLCL2; assay type: cell-based, Human; settings: read-out: IC50 for inhibiting the proliferation of tumor cells, WSU-DLCL2
Protocol: as §1, §2, §3

PC-3 = test: CCK-8 tumor cell proliferation, PC-3; assay type: cell-based, Human; settings: PC-3, 96 h, read-out: IC50 for inhibiting the proliferation of tumor cells, PC-3
Protocol: as §1, §2, §3

Kasumi-1 = test: CCK-8 tumor cell proliferation, Kasumi-1; assay type: cell-based; settings: Homo sapiens, Kasumi-1, 72 h, read-out: IC50 for inhibiting the proliferation of tumor cells, Kasumi-1
Protocol: as §1, §2, §3

SU-DHL-6 = test: CCK-8 tumor cell proliferation, SU-DHL-6; assay type: cell-based; settings: Homo sapiens, SU-DHL-6, 72 h, read-out: IC50 for inhibiting the proliferation of tumor cells, SU-DHL-6
Protocol: as §1, §2, §3

[1] = Homo sapiens, WSUDLCL2, WSU-DLCL2, 96 h
[2] = Homo sapiens, MGC-803, MGC80-3, 96 h

SMILES: CN(C)C(=O)c1cc2cnc(Nc3ccc(N4CCC(CN5CC6CCC(C5)N6c5ccc6c(c5)C(=O)N(C5CCC(=O)NC5=O)C6=O)CC4)cn3)nc2n1C1CCCC1 (stereo not drawn) [GT-03651, 7-cyclopentyl-2-((5-(4-((8-(2-(2,6-dioxopiperidin-3-yl)-1,3-dioxoisoindolin-5-yl)-3,8-diazabicyclo[3.2.1]octan-3-yl)methyl)piperidin-1-yl)pyridin-2-yl)amino)-N,N-dimethyl-7H-pyrrolo[2,3-d]pyrimidine-6-carboxamide]
pIC50 (SW620; Homo sapiens, SW-620, CCK-8, Table 9 (CDK4/6-based)): 6.30 to 7.00

SMILES: N#Cc1ccc(OC2CCC(NC(=O)c3ccc(N4CCC(CN5CC6CCC(C5)N6c5ccc6c(c5)C(=O)N(C5CCC(=O)NC5=O)C6=O)CC4)nn3)CC2)cc1Cl (stereo not drawn) [GT-03488, N-((1r,4r)-4-(3-chloro-4-cyanophenoxy)cyclohexyl)-6-(4-((8-(2-(2,6-dioxopiperidin-3-yl)-1,3-dioxoisoindolin-5-yl)-3,8-diazabicyclo[3.2.1]octan-3-yl)methyl)piperidin-1-yl)pyridazine-3-carboxamide]
pIC50 (Hep3B2.1-7): ≥ 7.30 | pIC50 (MGC80-3; MGC80-3, 96 h): ≥ 7.30 | pIC50 (DU-145): 7.00 to 7.30 | pIC50 (MM.1R): ≥ 7.30 | pIC50 (LNcap): ≥ 7.30 | pIC50 (A549): 7.00 to 7.30

SMILES: CC1(C)[C@H](NC(=O)c2ccc(N3CCC(CN4CC5CCC(C4)N5c4cc5c(cc4F)C(=O)N(C4CCC(=O)NC4=O)C5=O)CC3)nc2)C(C)(C)[C@H]1Oc1ccc(C#N)c(Cl)c1 (stereo partly drawn) [GT-03402, N-((1r,3r)-3-(3-chloro-4-cyanophenoxy)-2,2,4,4-tetramethylcyclobutyl)-6-(4-((8-(2-(2,6-dioxopiperidin-3-yl)-6-fluoro-1,3-dioxoisoindolin-5-yl)-3,8-diazabicyclo[3.2.1]octan-3-yl)methyl)piperidin-1-yl)nicotinamide]
pIC50 (WSU-DLCL2; [1]): 6.30 to 7.00 | pIC50 (DU-145; Homo sapiens): 7.00 to 7.30 | pIC50 (LNcap; Homo sapiens): 7.00 to 7.30 | pIC50 (A549; Homo sapiens): 6.30 to 7.00 | pIC50 (PC-3; Homo sapiens): 7.00 to 7.30

pIC50 (WSU-DLCL2; WSU-DLCL2, 96 h): 5.30 to 6.00 | pIC50 (MGC80-3; MGC80-3, 96 h): 6.30 to 7.00 | pIC50 (SW620; CCK-8, Table 8 (AR-based)): 7.00 to 7.30 | pIC50 (DU-145): 6.00 to 6.30 | pIC50 (MM.1R): 5.30 to 6.00 | pIC50 (LNcap): 6.00 to 6.30 | pIC50 (PC-3): 6.00 to 6.30
SMILES: N#Cc1ccc(OC2CCC(NC(=O)c3ccc(N4CCC(CN5CCN(c6cc7c(cc6F)C(=O)N(C6CCC(=O)NC6=O)C7=O)CC5)CC4)nn3)CC2)cc1Cl (stereo not drawn) [GT-03016, N-((1r,4r)-4-(3-chloro-4-cyanophenoxy)cyclohexyl)-6-(4-((4-(2-(2,6-dioxopiperidin-3-yl)-6-fluoro-1,3-dioxoisoindolin-5-yl)piperazin-1-yl-2,2,3,3,5,5,6,6-d8)methyl)piperidin-1-yl)pyridazine-3-carboxamide]

SMILES: N#Cc1ccc(OC2CCC(NC(=O)c3ccc(N4CCC(CN5CC6CCC(C5)N6c5cc6c(cc5F)C(=O)N(C5CCC(=O)NC5=O)C6=O)CC4)nn3)CC2)cc1Cl (stereo not drawn) [GT-02765, N-((1r,4r)-4-(3-chloro-4-cyanophenoxy)cyclohexyl)-6-(4-((8-(2-(2,6-dioxopiperidin-3-yl)-6-fluoro-1,3-dioxoisoindolin-5-yl)-3,8-diazabicyclo[3.2.1]octan-3-yl)methyl)piperidin-1-yl)pyridazine-3-carboxamide]
pIC50 (WSU-DLCL2; WSU-DLCL2, 96 h): ≥ 7.30 | pIC50 (Hep3B2.1-7): ≥ 7.30 | pIC50 (MGC80-3; MGC80-3, 96 h): ≥ 7.30 | pIC50 (SW620; CCK-8, Table 8 (AR-based)): ≥ 7.30 | pIC50 (DU-145): 7.00 to 7.30 | pIC50 (MM.1R): 6.30 to 7.00 | pIC50 (LNcap): ≥ 7.30 | pIC50 (A549): ≥ 7.30 | pIC50 (PC-3): ≥ 7.30

pIC50 (WSU-DLCL2; [1]): 7.00 to 7.30 | pIC50 (Hep3B2.1-7; Homo sapiens): 7.00 to 7.30 | pIC50 (MGC80-3; [2]): 7.00 to 7.30 | pIC50 (DU-145; Homo sapiens): 5.30 to 6.00 | pIC50 (LNcap; Homo sapiens): 7.00 to 7.30 | pIC50 (A549; Homo sapiens): 6.30 to 7.00
SMILES: CC1(C)[C@H](NC(=O)c2ccc(N3CCC(CN4CC5CCC4CN5c4cc5c(cc4F)C(=O)N(C4CCC(=O)NC4=O)C5=O)CC3)nc2)C(C)(C)[C@H]1Oc1ccc(C#N)c(Cl)c1 (stereo partly drawn) [GT-03494, N-((1r,3r)-3-(3-chloro-4-cyanophenoxy)-2,2,4,4-tetramethylcyclobutyl)-6-(4-((5-(2-(2,6-dioxopiperidin-3-yl)-6-fluoro-1,3-dioxoisoindolin-5-yl)-2,5-diazabicyclo[2.2.2]octan-2-yl)methyl)piperidin-1-yl)nicotinamide]

SMILES: CC1(C)[C@H](NC(=O)c2ccc(N3CCC(CN4CC5CCC(C4)N5c4cc5c(cc4F)C(=O)N(C4CCC(=O)NC4=O)C5=O)CC3)nn2)C(C)(C)[C@H]1Oc1ccc(C#N)c(Cl)c1 (stereo partly drawn) [GT-03398, N-((1r,3r)-3-(3-chloro-4-cyanophenoxy)-2,2,4,4-tetramethylcyclobutyl)-6-(4-((8-(2-(2,6-dioxopiperidin-3-yl)-6-fluoro-1,3-dioxoisoindolin-5-yl)-3,8-diazabicyclo[3.2.1]octan-3-yl)methyl)piperidin-1-yl)pyridazine-3-carboxamide]
pIC50 (MGC80-3; [2]): ≥ 7.30 | pIC50 (DU-145; Homo sapiens): 7.00 to 7.30 | pIC50 (LNcap; Homo sapiens): 7.00 to 7.30 | pIC50 (A549; Homo sapiens): 7.00 to 7.30 | pIC50 (PC-3; Homo sapiens): ≥ 7.30

pIC50 (WSU-DLCL2; [1]): 6.30 to 7.00 | pIC50 (Hep3B2.1-7; Homo sapiens): ≥ 7.30 | pIC50 (MGC80-3; [2]): 6.30 to 7.00 | pIC50 (LNcap; Homo sapiens): 6.30 to 7.00 | pIC50 (A549; Homo sapiens): 6.30 to 7.00
SMILES: CC1(C)[C@H](NC(=O)c2ccc(N3CCC(CN4CC5CCC4CN5c4ccc5c(c4)C(=O)N(C4CCC(=O)NC4=O)C5=O)CC3)nc2)C(C)(C)[C@H]1Oc1ccc(C#N)c(Cl)c1 (stereo partly drawn) [GT-03481, N-((1r,3r)-3-(3-chloro-4-cyanophenoxy)-2,2,4,4-tetramethylcyclobutyl)-6-(4-((5-(2-(2,6-dioxopiperidin-3-yl)-1,3-dioxoisoindolin-5-yl)-2,5-diazabicyclo[2.2.2]octan-2-yl)methyl)piperidin-1-yl)nicotinamide]

pIC50 (SW620; Homo sapiens, SW-620, CCK-8, Table 9, numeric value): < 5.00
SMILES: CN(C)C(=O)c1cc2cnc(Nc3ccc(N4CCNCC4)cn3)nc2n1C1CCCC1 [Ribociclib, reference compound]

pIC50 (SW620; CCK-8, Table 8 (AR-based)): 6.30 to 7.00
SMILES: N#Cc1ccc(OC2CCC(NC(=O)c3ccc(N4CCC(CN5CC6CCC5CN6c5cc6c(cc5F)C(=O)N(C5CCC(=O)NC5=O)C6=O)CC4)nn3)CC2)cc1Cl (stereo not drawn) [GT-03773, N-((1r,4r)-4-(3-chloro-4-cyanophenoxy)cyclohexyl)-6-(4-((5-(2-(2,6-dioxopiperidin-3-yl)-6-fluoro-1,3-dioxoisoindolin-5-yl)-2,5-diazabicyclo[2.2.2]octan-2-yl)methyl)piperidin-1-yl)pyridazine-3-carboxamide]

SMILES: Cc1nc(Nc2ncc(C(=O)Nc3c(C)cccc3Cl)s2)cc(N2CCC(CN3CC4CCC(C3)N4c3ccc4c(c3)C(=O)N(C3CCC(=O)NC3=O)C4=O)CC2)n1 (stereo not drawn) [GT-03629, N-(2-chloro-6-methylphenyl)-2-((6-(4-((8-(2-(2,6-dioxopiperidin-3-yl)-1,3-dioxoisoindolin-5-yl)-3,8-diazabicyclo[3.2.1]octan-3-yl)methyl)piperidin-1-yl)-2-methylpyrimidin-4-yl)amino)thiazole-5-carboxamide]
pIC50 (Kasumi-1): 6.30 to 7.00 | pIC50 (SU-DHL-6): 6.30 to 7.00
